Assay results: the NIST ThermoML archive (doi:10.1021/je049706p)
± gives the expanded uncertainty stated by the source.

Experiment: refractive index (Na D-line) (dimensionless)
Conditions: 293.1 K; 101.33 kPa; Liquid; Standard Abbe refractometry

- refractive index: 1.4686 ± 0.0012
SMILES: CN1CCCC1=O [N-methylpyrrolidone]
